Results published in patent publication US20220162257A1, “3ALPHA, 5BETA-NEUROACTIVE STEROIDS FOR THE TREATMENT OF EPILEPSY AND SEIZURE DISEASES” (USTAV ORGANICKE CHEMIE A BIOCHEMIE AV CR, V. V. I., priority 2019, published 2022).

How the values were obtained:
Format in all cases: in vivo, rat
[1] = tested on: generalized tonic-clonic seizures in adult rats; experiment: seizures in young adult (P60) rats, FIGS. 6A-6C
Procedure: FIGS. 6A-6C show anticonvulsant effect of a substance from Example 1 in a model of seizures elicited by 6 Hz transcorneal electrical stimulation in young adult (P60) male rats. Steroid substance in dose 1, 5, or 10 mg/kg i.p. (x-axis) was administered 20 min before the first stimulation. Graph 6A (y-axis in %)—incidence of complete (GTCS) and incomplete, i.e. without the tonic phase (GCS) generalized seizures; graph 6B (y-axis in %)—incidence of minimal clonic seizures; graph 6C (y-axis in s)—latencies of generalized seizures.
(§1) Anticonvulsant effect of compounds was evaluated in two models of epileptic seizures in immature rats (PTZ model and 6 Hz model). PTZ convulsions were tested in 12- and 25-day-old rats, 6 Hz-induced seizures in 15- and 25-day-old rats. Young adult rats (P60) were also used in either test. Day of birth was taken as P0. Experiments evaluating precognitive effect were performed in adult male rats of the Wistar and Long Evans strain (3 months old, b.w. 300-400 g). All animals were obtained from a breeding facility of Institute of Physiology CAS (certificate No. 1396/2014-MZE-17214) Animals were held in standard conditions (21±1° C., humidity 50-60%, light regime 12/12) with unrestricted access to food and water. All manipulations with animals were performed according to the https://nc3rs.org.uk/arrive-guidelines and to Czech Animal Protection Law 246/1992 Sb. And international directives (EU Directive 2010/63/EU for animals' experiments).
GTCS were present in only one rat after the 10-mg/kg dose.

[2] = tested on: anxiety parameters in rats; experiment: Elevated plus maze test (EPM); details: 10 mg/kg i.p., 30 minutes before maze testing
Procedure: as §1
Behavioral models of the affective disorders are based on exposure to stress. […]
In the EPM test, the Compound from Example 1 was administered at doses of 1, 3 and 10 mg/kg, i.p. 30 minutes before maze testing. Time spent in open arms, closed arms, and central platform were recorded during a 10-min test session.

latency to feed in rats = experiment: Novelty suppressed feeding model (NSF)
Procedure: as §1
Behavioral models of the affective disorders are based on exposure to stress. Two behavioral tests were performed: the Elevated plus maze test (EPM, Nat. Protoc. 2007, 2, 322) and the Novelty suppressed feeding model (NSF, Interdiscip. Toxicol. 2017, 10, 40).
In the NSF test, the Compound from Example 1 was administered i.p. 30 min before the test at doses 0.1; 0.3; 1; 3 and 10 mg/kg.

[3] = tested on: NMDA lesion of the dorsal hippocampus in male rats; experiment: bilateral excitotoxic NMDA lesion of the dorsal hippocampus; details: 1 mg/kg i.p. 5 minutes after NMDA lesion, evaluated 24 h
Procedure: The tissue damage is induced by infusing NMDA (25 mmol.L^−1) into the dorsal hippocampus in the male rats. The figures in panel (FIG. 9A) show representative images of brain slices of control animals, in panel (FIG. 9B) the group of animals which were administered the solutions containing NMDA into dorsal hippocampus (NMDA lesion) and i.p. treated by (2-hydroxypropyl)-β-cyclodextrin (CDX) and in panel (FIG. 9C) brain slices of the animals, with NMDA lesions of the dorsal hippocampus and i.p. treated by the Compound of Example 1 at a dose of 1 mg/kg dissolved in CDX.
The neuroprotective effect of the Compound from Example 1 was tested in the model of bilateral excitotoxic lesion of the dorsal hippocampus. The procedure was performed according to literature (Neuropharmacology 2011, 61, 61). This model simulates the overstimulation of NMDA receptors that occurs in the number of pathophysiological states, leading to calcium flow into the neuron's and, consequently, to apoptosis […] necrosis. Clinically, this phenomenon is manifested by neurodegeneration and CNS damage. Rats were randomly divided into three groups. […] Histological damage, e.g. the neuroprotective effect of Compound from Example 1 was evaluated by staining damaged neurons with Fluoro Jade B (Merck Millipore, Catalog Number AG310-30MG), and evaluated areas included: hippocampus-DG, hilus, CA3, CA1.

SMILES: CC(=O)[C@H]1CC[C@H]2[C@@H]3CC[C@@H]4C[C@H](OC(=O)C5CCC(=O)N5)CC[C@]4(C)[C@H]3CC[C@]12C (stereo partly drawn) [Example 1, (3R,5R,8R,9S,10S,13S,14S,17S)-17-Acetyl-10,13-dimethylhexadecahydro-1H-cyclopenta[a]fenantren-3-yl 5-oxopyrrolidine-2-carboxylate]
- latency to GTCS ([1]; 5 mg/kg i.p.): significantly decreased
- animals with GTCS ([1]; 10 mg/kg i.p.): only one rat
- incidence of generalized tonic-clonic seizures (GTCS) ([1]; 10 mg/kg i.p.): significantly decreased the incidence
- minimal clonic seizures ([1]; 10 mg/kg i.p.): remained unaffected
- seizure severity ([1]; 5 and 10 mg/kg i.p.): significantly decreased
- anxiety parameters [2]: significant reduction of anxiety parameters
- latency to feed (anxiolytic parameter) (latency to feed in rats; 0.3 mg/kg i.p., 30 min before the test): significant decrease in latency to feed
- latency of feed intake (latency to feed in rats; 1 and 3 mg/kg i.p.): trend to decrease the latency of feed intake
- dorsal hippocampus damage (Fluoro Jade B staining) [3]: significant reduction in the dorsal hippocampus damage
